Data on six molecules can be found in article PMC8448983 (European journal of medicinal chemistry, 2021).

Marks after values point to notes of the source that are not given here.

Assay [1] deals with human blood platelets. Kind of assay: ADP-induced platelet aggregation in platelet-rich plasma. The assay is classed as cell-based. The following applies: 10 μM ADP, mean ± SD, n = 6–9.
Assay [2] deals with human blood platelets. The assay is described as follows: Formation of thrombus on collagen in flow conditions. It is filed as cell-based. The following applies: whole blood perfused over collagen; 50 μM compound; n = 9.
The target in assay [3] is T1, human A2B adenosine receptor (Homo sapiens, UniProt P29275).
T1 sequence (P29275 1-332): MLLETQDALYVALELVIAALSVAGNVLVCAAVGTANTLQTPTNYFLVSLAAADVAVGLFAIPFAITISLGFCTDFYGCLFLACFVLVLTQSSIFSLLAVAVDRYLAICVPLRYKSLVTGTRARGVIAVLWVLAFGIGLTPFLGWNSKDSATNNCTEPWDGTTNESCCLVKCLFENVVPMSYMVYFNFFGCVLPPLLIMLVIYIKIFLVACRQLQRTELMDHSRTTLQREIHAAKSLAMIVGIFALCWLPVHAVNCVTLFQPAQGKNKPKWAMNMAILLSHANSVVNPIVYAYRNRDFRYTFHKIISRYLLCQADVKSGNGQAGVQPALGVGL
The following applies: USEF, HEK-A2B membranes, 25 nM [3H]-DPCPX; for percent of inhibition, A2B AR: 10 μM compound.

For assay [4], the target named is T2, human A3 adenosine receptor (Homo sapiens, UniProt P0DMS8).
T2 sequence (P0DMS8 1-318): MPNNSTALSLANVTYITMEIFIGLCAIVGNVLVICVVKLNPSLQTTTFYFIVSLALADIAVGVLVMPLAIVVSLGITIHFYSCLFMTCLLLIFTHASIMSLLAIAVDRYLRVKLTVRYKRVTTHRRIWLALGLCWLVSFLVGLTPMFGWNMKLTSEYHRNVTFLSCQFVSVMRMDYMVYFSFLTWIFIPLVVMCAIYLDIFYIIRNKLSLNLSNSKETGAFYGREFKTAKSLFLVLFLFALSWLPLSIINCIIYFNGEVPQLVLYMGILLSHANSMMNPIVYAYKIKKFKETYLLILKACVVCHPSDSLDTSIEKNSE
The following applies: for Ki: read-out: Ki, A3 AR, USEF, HeLa-A3 membranes, 10 nM [3H]-NECA; for activity class (active / inactive) in selectivity analysis / receptor selectivity class: N6 carborane derivatives, USEF binding data.

Assay [5] relates to human blood platelets. Kind of assay: Aggregation of blood platelets in whole blood. Particulars: for effect on ADP-induced platelet aggregation in whole blood: ADP, 10, 30, 50 μM compound, n = 13; for effect on arachidonic acid-induced platelet aggregation in whole blood: data not shown; for effect on collagen-induced platelet aggregation in whole blood: collagen 1 μg/mL.
Assay [6] deals with T3, human A2A adenosine receptor (Homo sapiens, UniProt P29274). Particulars: for radioligand displacement at A2A receptor: 50 μM compound, Fig. 1; for percent of inhibition, A2A AR: 10 μM compound, USEF, HeLa-A2A membranes, 3 nM [3H]-ZM241385.
Assay [7] has as its target T4, human A1 adenosine receptor (Homo sapiens, UniProt P30542).
T4 sequence (P30542 1-326): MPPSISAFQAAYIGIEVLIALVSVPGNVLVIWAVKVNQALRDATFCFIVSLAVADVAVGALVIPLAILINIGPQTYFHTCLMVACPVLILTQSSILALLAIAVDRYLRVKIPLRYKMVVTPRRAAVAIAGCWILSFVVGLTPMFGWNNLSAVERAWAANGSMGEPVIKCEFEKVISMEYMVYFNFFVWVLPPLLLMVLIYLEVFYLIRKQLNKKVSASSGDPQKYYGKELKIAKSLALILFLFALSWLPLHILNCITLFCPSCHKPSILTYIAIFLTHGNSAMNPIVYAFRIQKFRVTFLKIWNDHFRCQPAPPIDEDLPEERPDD
Kind of assay: biochemical.

In assay [8] the target is T3, human A2A adenosine receptor. Kind of assay: biochemical.
The next assay deals with A3 receptor. The following applies: read-out: experimental Ki, A3 AR; ref PubChem CID 9958472; cited from earlier work.
Another assay has as its target T5, human A3 receptor (Homo sapiens, UniProt P0DMS8).
T5 sequence (P0DMS8 1-318): T2 sequence (P0DMS8 1-318)
Kind of assay: Functional cAMP assay in CHO-A3 cells. Particulars: for KB (antagonist mode; functional character at A3): inhibition of NECA (0.1 μM) effect on cAMP; for % Emax: maximal agonist effect; for EC50: read-out: EC50 (cAMP), agonist mode. It is filed as cell-based.

Assay [9] addresses T4, human A1 adenosine receptor. The following applies: 10 μM compound; USEF; CHO-A1 membranes; 1 nM [3H]-DPCPX.

T3 sequence (P29274 whole entry): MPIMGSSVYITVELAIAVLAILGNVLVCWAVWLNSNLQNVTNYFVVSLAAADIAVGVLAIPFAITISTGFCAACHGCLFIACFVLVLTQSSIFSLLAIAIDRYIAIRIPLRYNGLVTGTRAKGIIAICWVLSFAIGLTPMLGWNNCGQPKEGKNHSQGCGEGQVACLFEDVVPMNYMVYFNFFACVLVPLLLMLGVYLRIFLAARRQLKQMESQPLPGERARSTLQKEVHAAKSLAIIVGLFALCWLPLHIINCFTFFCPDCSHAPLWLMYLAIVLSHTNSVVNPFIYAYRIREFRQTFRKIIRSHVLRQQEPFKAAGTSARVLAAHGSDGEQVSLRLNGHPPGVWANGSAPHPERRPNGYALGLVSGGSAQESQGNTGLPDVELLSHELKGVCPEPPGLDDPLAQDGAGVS

With “5′-ethylcarbamoyl-N^6-(3-phenylpropyl)adenosine [Compound 18]”, the figures for the “area under the aggregation curve, ADP-induced platelet aggregation” value (“area under the aggregation curve” for short) in the assay on human blood platelets [1] (10 μM compound) and in the assay on human blood platelets [1] (50 μM compound) were 630.0 ± 80.3 arbitrary units and 336.8 ± 108.5 arbitrary units, respectively. For the same molecule, in the assay with human blood platelets [2], the “effect on thrombus formation on collagen under flow” value is on record as “did not exert an inhibitory effect”. Further, the inhibitory constant (Ki) in assay [3] (read-out: Ki, A2B AR) was 1380 nM; in assay [4] it was 4.5 nM. The “effect on ADP-induced platelet aggregation in whole blood” value with human blood platelets [5] was “significantly inhibited”. Further, in the assay with human blood platelets [5], the “effect on arachidonic acid-induced platelet aggregation in whole blood” value is “no effect”. Besides, in the assay with human blood platelets [5], the “effect on collagen-induced platelet aggregation in whole blood” value is given as “significantly inhibited”.

Regarding `OC[C@H]1O[C@@H](n2cnc3c(NCCCc4ccccc4)nc(Cl)nc32)[C@H](O)[C@@H]1O` [Compound 24, 6-N-(3-phenylpropyl)-2-chloroadenosine], in [6], the “radioligand displacement at A2A receptor” value is “at least 50%”. In addition, the Ki in [7] worked out at 3340 nM. Besides, the 50% inhibitory concentration (IC50) in [8] is 22000 ± 4400 nM.

With `OC[C@H]1O[C@@H](n2cnc3c(NCCCc4ccccc4)ncnc32)[C@H](O)[C@@H]1O` [Compound 40, N^6-(3-phenylpropyl)adenosine], the “effect on thrombus formation on collagen under flow” value in the assay with human blood platelets [2] is “smaller than the thrombi in the untreated samples”. The “radioligand displacement at A2A receptor” value in [6] is reported as “at least 50%”. In the assay on human blood platelets [5], the “effect on ADP-induced platelet aggregation in whole blood” value is reported as “significantly decreased”, the “effect on arachidonic acid-induced platelet aggregation in whole blood” value is “did not inhibit” and the “effect on collagen-induced platelet aggregation in whole blood” value is recorded as “did not inhibit”.

As for `CNC(=O)[C@H]1O[C@@H](n2cnc3c(NCc4ccc(N)c(I)c4)ncnc32)[C@H](O)[C@@H]1O` [I-AB-MECA], the Ki on A3 receptor is 1.2 to 2.1 nM.

Consider “N^6-[(1,12-dicarba-closo-dodecaboran-1-yl)but-4-yl]-5′-ethylcarbamoyl-adenosine [Compound 15]”, for which, on human A3 receptor, the “KB (antagonist mode; functional character at A3)” value is “no antagonist”, the “% Emax” value turned out to be 99% and the concentration giving a half-maximal response (EC50) amounted to 1010 nM. Also, the “area under the aggregation curve” value in the assay on human blood platelets [1] (10 μM compound) was 698.7 ± 74.4 arbitrary units. For the same molecule, the “area under the aggregation curve” value in the assay on human blood platelets [1] (50 μM compound) amounted to 657.1 ± 70.7 arbitrary units. In assay [9], the “percent of inhibition, A1 AR” value is 40 ± 2 %^a. For the same molecule, the “percent of inhibition, A2A AR” value in [6] was 9 ± 1 %^a. For the same molecule, the “percent of inhibition, A2B AR” value in [3] is on record as 7 ± 2 %^a. In [4], the “activity class (active / inactive) in selectivity analysis” value was “active”, the receptor selectivity class entry was “A3 AR selective” and the Ki worked out at 437 nM.

Turning to “N^6-[(1,12-dicarba-closo-dodecaboran-1-yl)but-4-yl]adenosine [Compound 7]”, on human A3 receptor, the “KB (antagonist mode; functional character at A3)” value was “no antagonist”, the “% Emax” value is reported as 103% and the 50% effective concentration (EC50) stood at 271 nM. Also, the “area under the aggregation curve” value in the assay with human blood platelets [1] (10 μM compound) was 686.5 ± 66.1 arbitrary units. In addition, in the assay with human blood platelets [1] (50 μM compound), the “area under the aggregation curve” value is on record as 642.8 ± 45.4 arbitrary units. Besides, in assay [9], the “percent of inhibition, A1 AR” value is 29 ± 1 %^a. For the same molecule, in assay [6], the “percent of inhibition, A2A AR” value is given as 2 ± 1 %^a. Further, in assay [3], the “percent of inhibition, A2B AR” value is 1 ± 1 %^a. For the same molecule, in [4], the “activity class (active / inactive) in selectivity analysis” value is reported as “active”, the receptor selectivity class result is “A3 AR selective” and the Ki was found to be 444 nM.
